In this experiment the test system is 3D7 P. falciparum strain. Kind of experiment: P. falciparum 3D7 parasite proliferation assay (SYBR Green). The experiment is classed as cell-based. The conditions noted are these: Plasmodium falciparum, Erythrocyte; 3D7 P. falciparum infected human erythrocytes, 72 hours, SYBR Green fluorescence; read-out: Pf3D7 Activity. How it is done:
The following assay illustrates the invention without in any way limiting the scope of the invention. This parasite proliferation assay measures the increase in parasite DNA content using a DNA intercalating dye, SYBR Green®. 3D7 P. falciparum strain is grown in complete culturing media until parasitemia reaches 3% to 8% with O+ human erythrocytes. 20 μl of screening media is dispensed into 384 well assay plates. 50 nl of compounds of the invention (in DMSO), including antimalarial controls (mefloquine, pyrimethamine and artemisinin), are then transferred into the assay plates, as well as DMSO alone to serve as a negative control for inhibition. Then 30 μl of a suspension of a 3D7 P. falciparum infected erythrocytes in screening media is dispensed into the assay plates such that the final hematocrit is 2.5% with a final parasitemia of 0.3%. The plates are placed in a 37° C. incubator for 72 hours in a low oxygen environment containing 93% N2, 4% CO2, and 3% O2 gas mixture. 10 μl of lysis buffer (saponin, triton-X, EDTA) containing a 10× solution of SYBR Green […] in RPMI media is dispensed into the plates. The plates are lidded and kept at room temperature overnight for the lysis of the infected red blood cells. The fluorescence intensity is measured (excitation […], emission 530 nm) using the Envision™ system (Perkin Elmer). The percentage inhibition of 50%, EC50, is calculated for each compound.

`CCc1c(-c2cncc(C(=O)NCC(C)(C)N)n2)[nH]c2ccccc12` [Example 50, N-(2-amino-2-methylpropyl)-6-(3-ethyl-1H-indol-2-yl)pyrazine-2-carboxamide]: the EC50 was 10 to 100 nM.
The figure for `Cc1c(-c2cncc(C(=O)N(C)CC(C)(C)N)n2)[nH]c2ccc(OC(F)(F)F)cc12` [Example 62, N-(2-amino-2-methylpropyl)-N-methyl-6-(3-methyl-5-(trifluoromethoxy)-1H-indol-2-yl)pyrazine-2-carboxamide] is 10 to 100 nM.
The figure for `COc1cccc2cc(-c3cncc(C(=O)NCC(C)(C)N)n3)[nH]c12` [Example 44, N-(2-amino-2-methylpropyl)-6-(7-methoxy-1H-indol-2-yl)pyrazine-2-carboxamide] is above 100 nM.
Regarding `CC(C)(N)CNC(=O)c1cncc(-c2cc3cc(C(F)(F)F)ccc3[nH]2)n1` [Example 18, N-(2-amino-2-methylpropyl)-6-(5-(trifluoromethyl)-1H-indol-2-yl)pyrazine-2-carboxamide], the EC50 was in the range of 10 to 100 nM.
`Cc1c(-c2cncc(C(=O)NCCC(C)(C)N)n2)[nH]c2ccc(OC(F)(F)F)cc12` [Example 59, N-(3-amino-3-methylbutyl)-6-(3-methyl-5-(trifluoromethoxy)-1H-indol-2-yl)pyrazine-2-carboxamide]: the EC50 was below 10 nM.
The figure for `Cc1c(-c2cncc(C(=O)NCC(C)(C)N)n2)[nH]c2ccc(S(C)(=O)=O)cc12` [Example 75, N-(2-Amino-2-methylpropyl)-6-(3-methyl-5-(methylsulfonyl)-1H-indol-2-yl)pyrazine-2-carboxamide] is above 100 nM; for `Cc1c(-c2cncc(C(=O)NCCN)n2)[nH]c2ccc(OC(F)(F)F)cc12` [Example 60, N-(2-aminoethyl)-6-(3-methyl-5-(trifluoromethoxy)-1H-indol-2-yl)pyrazine-2-carboxamide] it is 10 to 100 nM; for `CC(C)(N)CNC(=O)c1cncc(-c2cc3ccncc3[nH]2)n1` [Example 43, N-(2-amino-2-methylpropyl)-6-(1H-pyrrolo[2,3-c]pyridin-2-yl)pyrazine-2-carboxamide] it is above 100 nM.
Take `CCOC(=O)c1cc2[nH]c(-c3cncc(C(=O)NCC(C)(C)N)n3)c(C)c2s1` [Example 72, Ethyl 5-(6-((2-amino-2-methylpropyl)carbamoyl)pyrazin-2-yl)-6-methyl-4H-thieno[3,2-b]pyrrole-2-carboxylate]: the EC50 was below 10 nM.
With `Cc1c(-c2cncc(C(=O)NCCC(C)(C)N)n2)[nH]c2ccccc12` [Example 85, N-(3-amino-3-methylbutyl)-6-(3-methyl-1H-indol-2-yl)pyrazine-2-carboxamide] the figure was 10 to 100 nM; with `CC(C)c1c(-c2cncc(C(=O)NCC(C)(C)N)n2)[nH]c2ccc(OC(F)(F)F)cc12` [Example 16, N-(2-amino-2-methylpropyl)-6-(3-isopropyl-5-(trifluoromethoxy)-1H-indol-2-yl)pyrazine-2-carboxamide], 10 to 100 nM.
For `CC(C)(N)CNC(=O)c1cncc(-c2cc3ccc(C#N)cc3[nH]2)n1` [Example 34, N-(2-amino-2-methylpropyl)-6-(6-cyano-1H-indol-2-yl)pyrazine-2-carboxamide], the EC50 was above 100 nM.
On to `Cc1c(-c2cncc(C(=O)NCC(C)(C)N)n2)[nH]c2cc(Cl)ccc12` [Example 7, N-(2-amino-2-methylpropyl)-6-(6-chloro-3-methyl-1H-indol-2-yl)pyrazine-2-carboxamide], for which the EC50 is below 10 nM.
For the compound `Cc1cc2[nH]c(-c3cncc(C(=O)NCC(C)(C)N)n3)c(C)c2s1` [Example 73, N-(2-amino-2-methylpropyl)-6-(2,6-dimethyl-4H-thieno[3,2-b]pyrrol-5-yl)pyrazine-2-carboxamide], the EC50 was 10 to 100 nM.
With `CC(C)(N)CNC(=O)c1cncc(-c2cc3ccnc(Cl)c3[nH]2)n1` [Example 42, N-(2-amino-2-methylpropyl)-6-(7-chloro-1H-pyrrolo[2,3-c]pyridin-2-yl)pyrazine-2-carboxamide], the EC50 was above 100 nM.
With `CC(C)(N)CNC(=O)c1cncc(-c2cc3cccc(Cl)c3[nH]2)n1` [Example 28, N-(2-amino-2-methylpropyl)-6-(7-chloro-1H-indol-2-yl)pyrazine-2-carboxamide] the figure was 10 to 100 nM; with `Cc1c(-c2cncc(C(=O)NCC(N)CO)n2)[nH]c2ccccc12` (centres unmarked) [Example 94, N-(2-amino-3-hydroxypropyl)-6-(3-methyl-1H-indol-2-yl)pyrazine-2-carboxamide], above 100 nM.
In the case of `Cc1ccc2c(C)c(-c3cncc(C(=O)NCC(C)(C)N)n3)[nH]c2c1` [Example 45, N-(2-Amino-2-methylpropyl)-6-(3,6-dimethyl-1H-indol-2-yl)pyrazine-2-carboxamide], the EC50 was below 10 nM.
For the compound `Cc1c(-c2cncc(C(=O)NCC3(N)CCOCC3)n2)[nH]c2ccccc12` [Example 89, N-((4-aminotetrahydro-2H-pyran-4-yl)methyl)-6-(3-methyl-1H-indol-2-yl)pyrazine-2-carboxamide], the EC50 was 10 to 100 nM.
The figure for `Cc1c(-c2cncc(C(=O)NCC(C)(C)N)n2)[nH]c2ccc(OC(F)(F)F)cc12` [Example 5, N-(2-amino-2-methylpropyl)-6-(3-methyl-5-(trifluoromethoxy)-1H-indol-2-yl)pyrazine-2-carboxamide] is below 10 nM.
The figure for `Cc1c(-c2cncc(C(=O)N(C)CC(C)(C)N)n2)[nH]c2ccccc12` [Example 66, N-(2-amino-2-methylpropyl)-N-methyl-6-(3-methyl-1H-indol-2-yl)pyrazine-2-carboxamide] is above 100 nM.
As for `Cc1c(-c2cncc(C(=O)NCC(C)(C)N)n2)[nH]c2ccc(Cl)cc12` [Example 12, N-(2-amino-2-methylpropyl)-6-(5-chloro-3-methyl-1H-indol-2-yl)pyrazine-2-carboxamide], the EC50 lay in the range of 10 to 100 nM.
For `Cc1c(-c2cncc(C(=O)N[C@H]3COC[C@H]3N)n2)[nH]c2ccccc12` (racemic) [Example 99, (rac)-N-((3r,4s)-4-aminotetrahydrofuran-3-yl)-6-(3-methyl-1H-indol-2-yl)pyrazine-2-carboxamide], the EC50 is above 100 nM.
With `Cc1c(-c2cncc(C(=O)NCC(C)(C)N)n2)[nH]c2c1CCCC2` [Example 51, N-(2-amino-2-methylpropyl)-6-(3-methyl-4,5,6,7-tetrahydro-1H-indol-2-yl)pyrazine-2-carboxamide] the figure was 10 to 100 nM; with `Cc1c(-c2cncc(C(=O)NCC(C)(C)N)n2)[nH]c2cc(S(F)(F)(F)(F)F)ccc12` [Example 9, N-(2-amino-2-methylpropyl)-6-(3-methyl-6-(pentafluoro-[…]^6-sulfaneyl)-1H-indol-2-yl)pyrazine-2-carboxamide], below 10 nM.
The figure for `COc1ccc2[nH]c(-c3cncc(C(=O)NCC(C)(C)N)n3)cc2c1` [Example 32, N-(2-amino-2-methylpropyl)-6-(5-methoxy-1H-indol-2-yl)pyrazine-2-carboxamide] is above 100 nM.
Turning to `Cc1c(-c2cncc(C(=O)NCC(N)C3CC3)n2)[nH]c2ccccc12` (centres unmarked) [Example 102], the EC50 is 10 to 100 nM.
With `Cc1c(-c2cncc(C(=O)N[C@@H]3CCCC[C@@H]3N)n2)[nH]c2ccccc12` (racemic) [Example 98, (rac)-N-((1r,2s)-2-aminocyclohexyl)-6-(3-methyl-1H-indol-2-yl)pyrazine-2-carboxamide] the figure was above 100 nM; with `CC(C)(N)CNC(=O)c1cncc(-c2cc3cc(F)c(F)cc3[nH]2)n1` [Example 20, N-(2-amino-2-methylpropyl)-6-(5,6-difluoro-1H-indol-2-yl)pyrazine-2-carboxamide], 10 to 100 nM; with `Cc1c(-c2cncc(C(=O)NCC(C)(C)N)n2)[nH]c2ccc(Br)cc12` [Example 74, N-(2-Amino-2-methylpropyl)-6-(5-bromo-3-methyl-1H-indol-2-yl)pyrazine-2-carboxamide], below 10 nM.
With `Cc1ccc2cc(-c3cncc(C(=O)NCC(C)(C)N)n3)[nH]c2c1` [Example 23, N-(2-amino-2-methylpropyl)-6-(6-methyl-1H-indol-2-yl)pyrazine-2-carboxamide] the figure was 10 to 100 nM.
Regarding `Cc1c(-c2cncc(C(=O)NCC3(N)COC3)n2)[nH]c2ccccc12` [Example 95, N-((3-aminooxetan-3-yl)methyl)-6-(3-methyl-1H-indol-2-yl)pyrazine-2-carboxamide], the EC50 was above 100 nM.
With `Cc1c(-c2cncc(C(=O)NCC(N)C3CC3)n2)[nH]c2cc(Cl)c(F)cc12` (centres unmarked) [Example 79, N-(2-amino-2-cyclopropylethyl)-6-(6-chloro-5-fluoro-3-methyl-1H-indol-2-yl)pyrazine-2-carboxamide] the figure was 10 to 100 nM; with `Cc1c(-c2cncc(C(=O)NC34CC(N)(C3)C4)n2)[nH]c2ccc(OC(F)(F)F)cc12` [Example 64, N-(3-aminobicyclo[1.1.1]pentan-1-yl)-6-(3-methyl-5-(trifluoromethoxy)-1H-indol-2-yl)pyrazine-2-carboxamide], 10 to 100 nM; with `Cc1c(-c2cncc(C(=O)NCC(C)(C)N)n2)[nH]c2ccc(C(=O)NCC(C)(C)N)cc12` [Example 107, N-(2-amino-2-methylpropyl)-2-(6-((2-amino-2-methylpropyl)carbamoyl)pyrazin-2-yl)-3-methyl-1H-indole-5-carboxamide], above 100 nM.

Values taken from US20250197376A1, “PYRAZINE AMIDE DERIVATIVES” (Novartis AG, priority 2022, published 2025).
